According to patent US7358402B2, “Reduced coenzyme Q10 crystal with excellent stability and composition containing said reduced coenzyme Q10 crystal” (Kaneka Corporation, priority 2003, dated 2008):

Experiment: Plasma concentration of reduced coenzyme Q10 after oral administration to rats
Type: in vivo
Conditions: SD rats, male, oral 30 mg/kg as suspension with rapeseed oil (1:2) in 0.2% Tween 80
Experimental: Using the reduced coenzyme Q10 obtained in Example 1 and the reduced coenzyme Q10 obtained in Comparative Example 1, the blood concentrations of reduced coenzyme Q10 were measured when they were orally administered to rats. Each samples and rapeseed oil were added to aqueous solution of 0.2% Tween 80 to prepare suspension in which reduced coenzyme Q10:rapeseed oil=1:2. The suspension was orally administered to SD rats (male, 6 rats in one group) forcibly using a stomach sonde in 30 mg (reduced coenzyme Q10)/kg (rat body weight). Thereafter, the blood was sampled with time, and the plasma concentration of reduced coenzyme Q10 was measured by HPLC.

Structure (SMILES) | Tmax, time to maximum plasma concentration (listed as Reduced coenzyme Q10 crystals obtained in Comparative Example 1, 30 mg/kg) | Tmax, time to maximum plasma concentration (listed as Reduced coenzyme Q10 crystals obtained in Example 1, 30 mg/kg)
COc1c(O)c(C)c(C/C=C(\C)CC/C=C(\C)CC/C=C(\C)CC/C=C(\C)CC/C=C(\C)CC/C=C(\C)CC/C=C(\C)CC/C=C(\C)CC/C=C(\C)CCC=C(C)C)c(O)c1OC [Crystals obtained in Comparative Example 1] [reduced coenzyme Q10] | 8 h | 
COc1c(O)c(C)c(C/C=C(\C)CC/C=C(\C)CC/C=C(\C)CC/C=C(\C)CC/C=C(\C)CC/C=C(\C)CC/C=C(\C)CC/C=C(\C)CC/C=C(\C)CCC=C(C)C)c(O)c1OC [Crystals obtained in Example 1, reduced coenzyme Q10] |  | 4 h
